Experimental data taken from US7112593B2, “N-aryl-substituted cyclic amine derivative and medicine containing the same as active ingredient” (Eisai Co., Ltd., priority 2001, dated 2006).

Columns and labels:
[1] = target: T1, Squalene synthase (Rattus norvegicus, UniProt Q02769); experiment: Measurement of squalene synthase inhibitive activity by using a rat liver microsome; type: biochemical; conditions: [3H]-farnesylpyrophosphoric acid
T1 construct: the obtained residue was used as a microsome fraction; from tissue; host or cells: liver microsome fraction of male Sprague-Dawley rat (8 to 9 weeks in age)
T1 sequence (Q02769 1-416): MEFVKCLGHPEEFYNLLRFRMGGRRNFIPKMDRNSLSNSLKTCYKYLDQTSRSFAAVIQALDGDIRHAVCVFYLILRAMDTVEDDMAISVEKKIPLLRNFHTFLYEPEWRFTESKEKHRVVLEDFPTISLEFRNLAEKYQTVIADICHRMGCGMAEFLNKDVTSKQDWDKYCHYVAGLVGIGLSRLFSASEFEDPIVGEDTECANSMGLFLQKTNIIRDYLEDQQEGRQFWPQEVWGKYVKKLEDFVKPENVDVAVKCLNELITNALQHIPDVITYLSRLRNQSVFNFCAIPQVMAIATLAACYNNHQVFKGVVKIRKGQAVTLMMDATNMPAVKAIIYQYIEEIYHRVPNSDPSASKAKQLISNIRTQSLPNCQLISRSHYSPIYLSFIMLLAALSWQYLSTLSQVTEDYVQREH
Protocol: Measurement of Squalene Synthase Inhibitive Activity by Using a Rat Liver Microsome
(I) The reaction was run on a scale of 500 μl. 200 μl of a solution containing 125 mM tris-hydrochloric acid (pH: 7.3), 2.5 mM magnesium chloride, 5 mM potassium fluoride and 10 mM reduction type nicotinamidoadenine dinucleotide phosphoric acid, 100 μl of the specimen solution with a 5-fold concentration, 100 μl of distilled water and 50 μl of 0.4 to 1 mg/ml rat liver microsome prepared by the following method were mixed.
(II) The above mixture was pre-incubated at 37° C. for 10 minutes and thereafter, 50 μl of 100 μM [^3H]-farnesylpyrophosphoric acid (30 mCi/mmol, NEN) was added to the mixture to start a reaction. The reaction was continued at 37° C. for 10 minutes. 1 ml of ethanol was added to the resulting mixture to terminate the reaction and then 1 ml of distilled water and 3 ml of petroleum ether were added to the reaction solution, which was then shaken for 30 minutes. The water phase was separated from the organic phase, the water phase was frozen at −70° C. in dry ice/methanol and the radio activity of the organic phase was measured using a liquid scintillator. Or the organic phase was evaporated to dryness using nitrogen gas and the residue was dissolved as a marker in 25 μl of chloroform containing squalene, farnesol and cholesterol. This sample was spotted on a TCL plate (Merck) and developed using heptane for 15 to 20 minutes. A band of squalene was cut from the plate to measure the radio activity by using a liquid scintillation counter. The data was expressed by a concentration (IC50) at which 50% of the radio activity of a control group was inhibited.
Preparation Method for Rat Liver Microsome
All the following operations were performed on ice and centrifugation was performed at 4° C. […] The protein concentration of the suspension was quantitated by the Bradford method and the suspension was adjusted to 20 mg/ml with the same solution and stored at −70° C.

[2] = test system: rat liver cell; experiment: Measurement of cholesterol biosynthesis inhibitive activity in a rat liver cell; type: cell-based; conditions: isolated male SD rat liver cells, [1-14C]acetic acid incorporation into free cholesterol
Protocol: Measurement of Cholesterol Biosynthesis Inhibitive Activity in a Rat Liver Cell
A liver cell was isolated from a male SD rat according to a usual method (collagenase perfusion method) and subjected to an experiment.
The isolated liver cells were planted in an amount of 500 μl every well on a Type collagen coated 24 well plate (cell density: 4×10^5 cell/ml). As the cell culture solution, a Williams' E medium (adjusted to pH 7.4) containing 10% FCS, 1 μM insulin, 1 μM dexamethasone, 100 units/ml penicillin and 100 μg/ml streptomycin was used. After the liver cells were incubated in a CO2 incubator for 2 hours, unattached cells were removed and the liver cells were further incubated overnight.
After the culture medium was exchanged, the specimen diluted in a 10% DMSO-90% cell culture solution was added to each well inan amount of 5 μl. DMSO (final concentration: 0.1%) was added toacontrolgroup. A [1-^14C]Aceticacid, sodiumsalt (5 μCi/well) was added to the media 10 minutes after the specimen was added, followed by culturing for further 2 hours. […]
After the development was finished, the TLC plate was subjected to iodine color development. […] This transferred image was analyzed using a BAS 2000 IP Reader and an Imaging analyzer II to measure radio activities contained in the free cholesterol fractions. […]

| IC50 [1] [nM] | Compound | IC50 [2] [nM] |
| --- | --- | --- |
| 0.78 | CO[C@H]1C(=O)N(c2ccc(C#CC3(N)CCCCC3)c(Cc3ccccc3)n2)C[C@H]1O [Example 9, 1-[2-Benzyl-6-[(3R,4R)-4-hydroxy-3-methoxy-2-pyrrolidinon-1-yl]-3-pyridyl]ethynylcyclohexylamine] |  |
| 1.4 | CO[C@@H]1CN(c2ccc(C#CC3(O)CCCNC3)c(Cc3ccccc3)n2)C[C@H]1O (stereo partly drawn) [Example 1, 3-[2-Benzyl-6-[(3R,4R)-3-hydroxy-4-methoxypyrrolidin-1-yl]-3-pyridyl]ethynyl-3-piperidinol] | 0.45 |
|  | CO[C@H]1CN(c2ccc(C#C[C@@]3(O)CN4CCC3CC4)c(Cc3ccccc3)c2)C[C@H]1OC [Example 18, (3R)-3-[2-Benzyl-4-[(3R,4S)-3,4-dimethoxypyrrolidin-1-yl)phenyl]ethynyl-3-quinuclidinol] | 0.16 |
| 0.53 | CO[C@@H]1CN(c2ccc(C#CC3(N)CCCCC3)c(Cc3ccccc3)n2)C[C@H]1O [Example 7, 1-[2-Benzyl-6-[(3R,4R)-3-hydroxy-4-methoxypyrrolidin-1-yl]-3-pyridyl]ethynylcyclohexylamine] |  |
